Molecular target: T1, HiBiT-tagged MDM2 (Homo sapiens, UniProt Q00987)
T1 construct: expressed in transfected cells
Experiment: MDM2 HiBit HEK293T degradation
Format: cell-based
Settings: HEK293T cells stably expressing C-terminally HiBiT-tagged MDM2; 4 h; read-out: MDM2 HiBit HEK293T degradation 4 h: Average external-Abs DC50
Method: HEK293T cells were grown overnight to 70-80% confluency in a 6-well plate in complete media (DMEM 10% FBS) in a 37° C. incubator with 5% CO2. Cells were transfected with 1 micrograms of C- or N-terminally HiBiT-tagged MDM2 constructs using Fugene 6 transfection reagent (Promega) as per manufacturer protocol. After overnight incubation at 37° C., growth media within the wells was replaced with selection media (DMEM+10% FBS+1 microgram/ml final concentration of Puromycin). Puromycin (selection antibiotic) concentrations required for complete cell kill were determined previously. Cells were monitored for the next 48h-96h to select for positively transfected cells. Surviving colonies were pooled and expanded in selection media. Expanded pools of HEK293T cells stably expressing C- and N-terminally HiBiT-tagged MDM2, were characterized using a MDM2 tool degrader and HaloPROTAC3 as positive control. HEK293T cells expressing C-terminally HiBiT-tagged MDM2 were subsequently used for assessment of degradation potencies for MDM2 degraders.
The letter codes for MDM2 degradation potency (DC50) include: A (<10 nM), B […], C (>100-1000 nM), and D (>1000 nM).

T1 sequence (Q00987 whole entry): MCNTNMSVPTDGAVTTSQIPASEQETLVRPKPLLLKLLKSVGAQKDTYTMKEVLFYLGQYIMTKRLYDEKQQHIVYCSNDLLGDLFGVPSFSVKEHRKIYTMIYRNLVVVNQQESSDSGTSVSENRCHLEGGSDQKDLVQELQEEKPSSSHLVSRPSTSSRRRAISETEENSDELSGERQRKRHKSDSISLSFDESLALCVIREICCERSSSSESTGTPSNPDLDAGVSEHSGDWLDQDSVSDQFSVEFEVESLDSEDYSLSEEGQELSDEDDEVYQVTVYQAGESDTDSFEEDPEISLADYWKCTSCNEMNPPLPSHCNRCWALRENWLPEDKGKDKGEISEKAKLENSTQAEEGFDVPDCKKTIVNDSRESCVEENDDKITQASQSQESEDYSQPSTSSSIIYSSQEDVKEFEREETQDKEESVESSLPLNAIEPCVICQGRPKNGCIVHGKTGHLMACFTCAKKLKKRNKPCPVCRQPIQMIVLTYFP

Structure (SMILES) | DC50
Cn1c(=O)n(C2CCC(=O)NC2=O)c2ccc(O[C@@H]3C[C@@H](C(=O)O)N(C[C@H]4CC[C@H](NC(=O)[C@@H]5NC6(CCCCC6)[C@@]6(C(=O)Nc7cc(Cl)ccc76)[C@H]5c5cccc(Cl)c5F)CC4)C3)cc21 (stereo partly drawn) [I-200] | 10 to 100 nM
Cc1ncsc1-c1ccc(CNC(=O)[C@@H]2C[C@@H](O)CN2C(=O)[C@@H](NC(=O)C2(F)CC2)C(C)(C)C)c(OCCCC2CCN(C[C@H]3CC[C@H](NC(=O)[C@@H]4NC5(CCCCC5)[C@@]5(C(=O)Nc6cc(Cl)ccc65)[C@H]4c4cccc(Cl)c4F)CC3)CC2)c1 [I-204] | > 1000 nM
O=C(O)Cn1c(=O)n(C2CCC(=O)NC2=O)c2ccc(C3CCN(C[C@H]4CC[C@H](NC(=O)[C@@H]5NC6(CCCCC6)[C@@]6(C(=O)Nc7cc(Cl)ccc76)[C@H]5c5cccc(Cl)c5F)CC4)CC3)cc21 (stereo partly drawn) [I-206] | 10 to 100 nM
O=C1CCN(c2ccc(CCCCN3CCN(C[C@H]4CC[C@H](NC(=O)[C@@H]5NC6(CCCCC6)[C@@]6(C(=O)Nc7cc(Cl)ccc76)[C@H]5c5cccc(Cl)c5F)CC4)CC3)cc2)C(=O)N1 [I-208] | > 1000 nM
Cn1c(=O)n(C2CCC(=O)NC2=O)c2ccc(CC3(CC(=O)O)CCN(C[C@H]4CC[C@H](NC(=O)[C@@H]5NC6(CCCCC6)[C@@]6(C(=O)Nc7cc(Cl)ccc76)[C@H]5c5cccc(Cl)c5F)CC4)CC3)cc21 (stereo partly drawn) [I-210] | 10 to 100 nM
Cn1c(=O)n(C2CCC(=O)NC2=O)c2ccc(CCCN3CCN(C[C@H]4CC[C@H](NC(=O)[C@@H]5NC6(CCCCC6)[C@@]6(C(=O)Nc7cc(Cl)ccc76)[C@H]5c5cccc(Cl)c5F)CC4)[C@@H](C(=O)O)C3)cc21 (stereo partly drawn) [I-216] | < 10 nM
Cn1c(=O)n(C2CCC(=O)NC2=O)c2ccc(CCCN3CCN(C[C@H]4CC[C@H](NC(=O)[C@@H]5NC6(CCCCC6)[C@@]6(C(=O)Nc7cc(Cl)ccc76)[C@H]5c5cccc(Cl)c5F)CC4)[C@@H](C(=O)NS(C)(=O)=O)C3)cc21 (stereo partly drawn) [I-222] | < 10 nM
Cn1c(=O)n(C2CCC(=O)NC2=O)c2ccc(CCCN3CCN(C[C@H]4CC[C@H](NC(=O)[C@@H]5NC6(CCC(C)(C)CC6)[C@@]6(C(=O)Nc7cc(Cl)ccc76)[C@H]5c5ccnc(Cl)c5F)CC4)[C@@H](C(=O)O)C3)cc21 (stereo partly drawn) [I-223] | < 10 nM
Cn1c(=O)n(C2CCC(=O)NC2=O)c2ccc(C3CCN(CCN4CCN(C[C@H]5CC[C@H](NC(=O)[C@@H]6NC7(CCCCC7)[C@@]7(C(=O)Nc8cc(Cl)ccc87)[C@H]6c6cccc(Cl)c6F)CC5)[C@H](C(=O)O)C4)CC3)cc21 (stereo partly drawn) [I-227] | < 10 nM

Continued, values first:

DC50 | Structure (SMILES)
< 10 nM | Cn1c(=O)n(C2CCC(=O)NC2=O)c2ccc(CCCN3CCN(C[C@H]4CC[C@H](NC(=O)[C@@H]5NC6(CCCCC6)[C@@]6(C(=O)Nc7cc(Cl)ccc76)[C@H]5c5cccc(Cl)c5F)CC4)C(C(=O)O)C3)cc21 (stereo partly drawn) [I-202]
< 10 nM | Cn1c(=O)n(C2CCC(=O)NC2=O)c2ccc(N3CCC(CC4(C(=O)O)CCN(C[C@H]5CC[C@H](NC(=O)[C@@H]6NC7(CCCCC7)[C@@]7(C(=O)Nc8cc(Cl)ccc87)[C@H]6c6cccc(Cl)c6F)CC5)CC4)CC3)cc21 (stereo partly drawn) [I-203]
< 10 nM | Cn1c(=O)n(C2CCC(=O)NC2=O)c2ccc(CCCCCN3CCN(C[C@H]4CC[C@H](NC(=O)[C@@H]5NC6(CCCCC6)[C@@]6(C(=O)Nc7cc(Cl)ccc76)[C@H]5c5cccc(Cl)c5F)CC4)[C@H](C(=O)O)C3)cc21 (stereo partly drawn) [I-211]
< 10 nM | Cn1c(=O)n(C2CCC(=O)NC2=O)c2ccc(CCCCCN3CCN(C[C@H]4CC[C@H](NC(=O)[C@@H]5NC6(CCCCC6)[C@@]6(C(=O)Nc7cc(Cl)ccc76)[C@H]5c5cccc(Cl)c5F)CC4)[C@@H](C(=O)O)C3)cc21 (stereo partly drawn) [I-212]
< 10 nM | Cn1c(=O)n(C2CCC(=O)NC2=O)c2ccc(CCCCN3CCN(C[C@H]4CC[C@H](NC(=O)[C@@H]5NC6(CCCCC6)[C@@]6(C(=O)Nc7cc(Cl)ccc76)[C@H]5c5cccc(Cl)c5F)CC4)[C@H](C(=O)O)C3)cc21 (stereo partly drawn) [I-213]
< 10 nM | Cn1c(=O)n(C2CCC(=O)NC2=O)c2ccc(CCCCN3CCN(C[C@H]4CC[C@H](NC(=O)[C@@H]5NC6(CCCCC6)[C@@]6(C(=O)Nc7cc(Cl)ccc76)[C@H]5c5cccc(Cl)c5F)CC4)[C@@H](C(=O)O)C3)cc21 (stereo partly drawn) [I-214]

Source: patent publication US20250034147A1, “MDM2 DEGRADERS AND USES THEREOF” (Kymera Therapeutics, Inc., priority 2021, published 2025)
